Reference: patent US10806737B2, “Compounds and methods for the targeted degradation of fetal liver kinase polypeptides” (Arvinas Operations, Inc., priority 2016, dated 2020)
Read-outs that look alike come from different tables or passages of the source.

How the values were obtained:
[1] = target: T1, FLT-3 (Homo sapiens, UniProt P36888, INS600HVDFREYEYD); test: Cellular assay of target protein degradation (MV-4-11 cells, westernblot); format: cell-based; details: Table 3; FLT-3 degradation, result in words
T1 construct: probed with antibodies specific for FLT-3 and GAPDH; endogenous in cells; host or cells: MV-4-11 cells
T1 sequence (P36888 with tags, fused parts or gaps INS600HVDFREYEYD): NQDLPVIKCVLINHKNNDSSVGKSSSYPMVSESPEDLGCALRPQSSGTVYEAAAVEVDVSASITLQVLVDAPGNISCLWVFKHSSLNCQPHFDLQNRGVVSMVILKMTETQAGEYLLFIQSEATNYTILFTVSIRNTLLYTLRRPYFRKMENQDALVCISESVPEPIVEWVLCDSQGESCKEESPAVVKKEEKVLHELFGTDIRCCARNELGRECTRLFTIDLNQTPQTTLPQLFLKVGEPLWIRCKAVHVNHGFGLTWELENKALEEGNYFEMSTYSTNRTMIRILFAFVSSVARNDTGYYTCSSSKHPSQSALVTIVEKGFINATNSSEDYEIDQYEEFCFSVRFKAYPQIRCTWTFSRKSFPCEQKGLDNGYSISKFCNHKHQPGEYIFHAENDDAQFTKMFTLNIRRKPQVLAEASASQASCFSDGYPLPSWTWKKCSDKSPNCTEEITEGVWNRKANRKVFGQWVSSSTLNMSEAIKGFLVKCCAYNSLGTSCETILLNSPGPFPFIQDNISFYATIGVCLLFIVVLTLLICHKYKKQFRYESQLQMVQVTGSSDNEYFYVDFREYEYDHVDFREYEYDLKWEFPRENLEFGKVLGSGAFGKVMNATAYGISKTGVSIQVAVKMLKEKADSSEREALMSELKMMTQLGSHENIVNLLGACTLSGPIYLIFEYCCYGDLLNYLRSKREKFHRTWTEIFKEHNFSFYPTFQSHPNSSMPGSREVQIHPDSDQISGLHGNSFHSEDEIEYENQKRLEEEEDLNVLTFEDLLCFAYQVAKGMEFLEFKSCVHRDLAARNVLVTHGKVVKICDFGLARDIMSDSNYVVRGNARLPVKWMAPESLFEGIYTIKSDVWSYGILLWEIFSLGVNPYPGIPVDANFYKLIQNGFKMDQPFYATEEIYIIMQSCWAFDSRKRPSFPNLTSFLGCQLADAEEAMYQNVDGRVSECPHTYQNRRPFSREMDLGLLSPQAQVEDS
Method: Protocol for the Cellular Assay of Target Protein Degradation (MV-4-11 Cells, Westernblot).
MV-4-11 cells (approximately 1 million cells per well) were treated with the indicated concentrations ([…]) of compound for 24 hours. The cells were spun down and washed twice with PBS. The cells were suspended by lysis buffer (50 mM Tris (pH7.4), 150 mM NaCl, 1 mM EDTA, 0.5% NP-40, phosphatase and protease inhibitors) and incubated for an additional 30 min at 4° C. for complete lysis. After another centrifugation (13000 rpm for 15 minutes), the supernatants were kept as cell lysates. The protein concentration of the cell lysates was determined via the bicinchoninic acid (BCA) method. Equal amounts (10-20 μg) of protein samples were subjected to 8-15% SDS-PAGE. The proteins were transferred to nitrocellulose membrane and probed with antibodies specific for FLT-3 and GAPDH.

[2] = system: MV4-11 cells; test: Cell proliferation assay (CellTiter 96 AQueous One Solution); format: cell-based; details: Homo sapiens
Method: Protocol for the Cell Proliferation Assays (MV-4-11 Cells).
MV-4-11 or Molm 14 cells were seeded in 96-well plates at a density of 1×10^4 cells/well and treated with various concentrations of the test compounds for 72 hours. The highest concentration was 500 nM and was serially diluted 5-fold seven times. After incubation, 20 μl/well of CellTiter 96® AQueous One Solution Reagent (Promega®) was added and the plate was incubated an additional 3 hours. The absorbance was measured at 490 nm, and cell viability was calculated by comparing to the absorbance of the vehicle-treated control group using GraphPad Prism 7.
Cell viability/survival is illustrated in FIGS. 4A, 4B and 4C, as determined by a cell proliferation assay. […] DC50, IC50, MH+, and NMR data for exemplary PROTAC-34 through PROTAC-38 and PROTAC-34-Epimer (structure shown below) is shown in Table 3 below.

Degradation observed [1]	IC50 ([2]; MV4-11, 72 h, Table 1, MV4-11 cells, 72 hours, cell viability, read-out: IC50 (nM) MV4-11) [nM]	IC50 ([2]; MV4-11, 72 h, Table 2, MV4-11 cells, 72 hours, cell viability, read-out: IC50 (nM) MV4-11) [nM]	IC50 ([2]; MV4-11, Table 3, MV4-11, read-out: IC50 [cell line]) [nM]	SMILES
No degradation	–	–	–	Cc1ncsc1-c1ccc(CNC(=O)[C@@H]2C[C@@H](O)CN2C(=O)[C@@H](NC(=O)CCOCCCCOc2ccc3c(c2)sc2nc(-c4ccc(NC(=O)Nc5cc(C(C)(C)C)on5)cc4)cn23)C(C)(C)C)cc1 [PROTAC-37]
–	2.34	1.75	–	CC(C)(C)c1cc(NC(=O)Nc2ccc(-c3cn4c(n3)sc3cc(OCCN5CCOCC5)ccc34)cc2)no1 [Quizartinib]
No degradation	–	–	2.27	Cc1ncsc1-c1ccc(CNC(=O)[C@@H]2C[C@@H](O)CN2C(=O)[C@@H](NC(=O)CCOCCOCCOc2ccc3c(c2)sc2nc(-c4ccc(NC(=O)Nc5cc(C(C)(C)C)on5)cc4)cn23)C(C)(C)C)cc1 [PROTAC-34-Epimer]
